Source: patent US10494376B2, “Tetrahydroisoquinoline derived PRMT5-inhibitors” (CTXT PTY LTD, priority 2014, dated 2019)
pIC50: −log10 of the molar value. Counter-ions that a name gives are not always drawn. Like-named read-outs stand apart in the source and are kept apart here.

Columns and labels:
[1] = system: symmetrical dimethylation of arginine (Di-Methyl Histone H4 Arginine 3) in cell line TE11; assay: Revised PRMT5 Biomarker Assay (Di-Methyl Histone H4 Arginine 3 immunofluorescence); format: cell-based; conditions: TE11 cells, 72 hours
Description: Compounds of the invention may be tested for potency to inhibit symmetrical dimethylation of arginine in the following assay:
The cell line TE11 was seeded at a density of 6,000 cells per well in 96 well optical quality tissue culture plates in DME medium and 10% foetal bovine serum, and allowed to adhere for 5 hours under standard culture conditions (37 degree Celsius, 5% CO2). […] After incubation for 72 hours, the cells were fixed with 3.7% formaldehyde in PBS for 30 minutes at room temperature, washed with phosphate buffer saline and blocked with Odyssey blocking buffer (LI-COR, Lincoln, Nebr.). Rabbit anti-Di-Methyl Histone H4 Arginine 3 specific antibody (Epigentek) in Odyssey blocking buffer was added and incubated for 14 hours at 4 degree Celsius. […] Alternatively, the plates were imaged on a PerkinElmer Phenix high content imaging platform. […] The resulting mean intensity per cell was directly converted to percent inhibition as outlined above (IC50, imager based).

[2] = molecular target: Full-length PRMT5 enzyme (NCBI Reference sequence NP_006100.2) co-expressed with His6-MEP50 (Homo sapiens (Human), UniProt O14744); assay: Revised PRMT5 Biochemical Assay; conditions: 1 μM peptide substrate, 1 μM S-Adenosyl methionine, 4 hours at 37 degree Celsius, Transcreener EPIGEN fluorescence polarisation
Chain of Full-length PRMT5 enzyme (NCBI Reference sequence NP_006100.2) co-expressed with His6-MEP50 (O14744 whole entry): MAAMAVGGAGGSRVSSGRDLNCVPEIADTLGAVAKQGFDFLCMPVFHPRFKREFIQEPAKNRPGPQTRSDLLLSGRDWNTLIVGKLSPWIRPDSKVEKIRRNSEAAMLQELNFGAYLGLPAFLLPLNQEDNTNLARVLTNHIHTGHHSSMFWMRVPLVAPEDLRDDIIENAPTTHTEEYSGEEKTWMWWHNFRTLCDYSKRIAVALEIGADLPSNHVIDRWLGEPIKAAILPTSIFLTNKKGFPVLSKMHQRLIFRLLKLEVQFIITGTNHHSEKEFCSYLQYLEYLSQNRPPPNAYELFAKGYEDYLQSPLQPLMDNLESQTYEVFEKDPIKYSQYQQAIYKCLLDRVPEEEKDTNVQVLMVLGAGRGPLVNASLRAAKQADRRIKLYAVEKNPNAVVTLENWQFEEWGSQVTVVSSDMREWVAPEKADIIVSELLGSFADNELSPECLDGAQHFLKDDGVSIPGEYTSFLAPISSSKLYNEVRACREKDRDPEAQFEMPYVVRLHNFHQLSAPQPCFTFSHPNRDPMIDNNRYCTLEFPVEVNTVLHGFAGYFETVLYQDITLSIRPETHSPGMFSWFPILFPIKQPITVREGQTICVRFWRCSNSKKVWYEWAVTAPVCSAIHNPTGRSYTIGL
Chain of Full-length PRMT5 enzyme (NCBI Reference sequence NP_006100.2) co-expressed with His6-MEP50 (Q9BQA1 whole entry partner): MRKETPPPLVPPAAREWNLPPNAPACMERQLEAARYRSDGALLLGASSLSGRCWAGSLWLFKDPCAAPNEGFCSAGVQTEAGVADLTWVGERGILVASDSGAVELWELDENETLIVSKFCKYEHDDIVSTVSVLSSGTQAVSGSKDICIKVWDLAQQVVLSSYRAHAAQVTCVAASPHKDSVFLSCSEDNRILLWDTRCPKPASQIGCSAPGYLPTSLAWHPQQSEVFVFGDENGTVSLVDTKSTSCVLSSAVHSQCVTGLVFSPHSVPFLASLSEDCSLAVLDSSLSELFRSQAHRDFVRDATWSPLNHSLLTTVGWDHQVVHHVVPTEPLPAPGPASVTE
Method in brief: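 Full-length PRMT5 co-expressed with His6-MEP50 in insect cells (15 ng/reaction) was run with 1 μM H4-derived peptide and 1 μM SAM in PBS, 0.01% Tween-20, 0.01% albumin and 1 mM DTT for 4 h at 37 °C. Product was read by Transcreener EPIGEN fluorescence polarisation, and IC50 came from a 4-parameter fit.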

[3] = Homo sapiens, TE-11, PerkinElmer Phenix high content imaging, mean intensity per cell, read-out: IC50 - image based
[4] = Homo sapiens, TE-11, PerkinElmer Envision fluorescence intensity, corrected for Hoechst 33342, read-out: IC50 - plate-reader based

Structure (SMILES)	pIC50 [1, 3]	pIC50 [2]	pIC50 [1, 4]	pIC50 ([1]; PerkinElmer Phenix high content imaging, mean intensity per cell, read-out: IC50 - image based)
CCOc1c(C(=O)NC[C@@H](O)[C@@H]2Cc3ccccc3CN2)ccc(C(=O)N2CCOCC2)c1C [Example 80, 2-Ethoxy-N-((R)-2-hydroxy-2-((S)-1,2,3,4-tetrahydroisoquinolin-3-yl)ethyl)-3-methyl-4-(morpholine-4-carbonyl)benzamide hydrochloride]		6.79	8.52	
COC(=O)N1[C@@H]2CC[C@H]1C[C@@H](Oc1cc(C(=O)NC[C@@H](O)[C@@H]3Cc4ccccc4CN3)ccn1)C2 [Example 105, Methyl (1R,3r,5S)-3-((4-(((R)-2-hydroxy-2-((S)-1,2,3,4-tetrahydroisoquinolin-3-yl)ethyl)carbamoyl)pyridin-2-yl)oxy)-8-azabicyclo[3.2.1]octane-8-carboxylate]		7.42		9.00
CCOc1cc(CC(=O)N2CCCC2)ccc1C(=O)NC[C@@H](O)[C@@H]1Cc2ccccc2CN1 [Example 79, 2-Ethoxy-N-((R)-2-hydroxy-2-((S)-1,2,3,4-tetrahydroisoquinolin-3-yl)ethyl)-4-(2-oxo-2-(pyrrolidin-1-yl)ethyl)benzamide hydrochloride]	8.52	6.77		
COC(=O)N1CCC(Oc2ccc(C(=O)NC[C@@H](O)[C@@H]3Cc4ccccc4CN3)cn2)CC1 [Example 100, Methyl 4-((5-(((R)-2-hydroxy-2-((S)-1,2,3,4-tetrahydroisoquinolin-3-yl)ethyl)carbamoyl)pyridin-2-yl)oxy)piperidine-1-carboxylate]	7.96	7.18		
CCOc1cc(C(=O)N2C3CCCC2COC3)ccc1C(=O)NC[C@@H](O)[C@@H]1Cc2ccccc2CN1 [Example 55, 4-(3-Oxa-9-azabicyclo[3.3.1]nonane-9-carbonyl)-2-ethoxy-N—((R)-2-hydroxy-2-((S)-1,2,3,4-tetrahydroisoquinolin-3-yl)ethyl)benzamide]	9.70	7.80	9.40	
O=C(NC[C@@H](O)[C@@H]1Cc2ccccc2CN1)c1ccc(C(=O)N2C3CCC2COC3)cc1 [Example 49, 4-(3-Oxa-8-azabicyclo[3.2.1]octane-8-carbonyl)-N—((R)-2-hydroxy-2-((S)-1,2,3,4-tetrahydroisoquinolin-3-yl)ethyl)benzamide hydrochloride]	9.00	7.42	8.22	
CCOc1cc(C(=O)N2C3CCC2COC3)ccc1C(=O)NC[C@@H](O)[C@@H]1Cc2ccc(C)cc2CN1 [Example 108, 4-(3-Oxa-8-azabicyclo[3.2.1]octane-8-carbonyl)-2-ethoxy-N—((R)-2-hydroxy-2-((S)-7-methyl-1,2,3,4-tetrahydroisoquinolin-3-yl)ethyl)benzamide]		7.77	9.00	
O=C(NC[C@@H](O)[C@@H]1Cc2ccccc2CN1)c1ccc(C(=O)N2CCOCC2)cc1 [Example 28, N-((R)-2-Hydroxy-2-((S)-1,2,3,4-tetrahydroisoquinolin-3-yl)ethyl)-4-(morpholine-4-carbonyl)benzamide hydrochloride]		6.74	7.92	
CCOc1cc(CC(=O)N2C3CCC2COC3)ccc1C(=O)NC[C@@H](O)[C@@H]1Cc2ccccc2CN1 [Example 74]		6.47	8.30	
CCOc1cc(C(=O)N2C3CCC2COC3)ncc1C(=O)NC[C@@H](O)[C@@H]1Cc2ccccc2CN1 [Example 82, 6-(3-Oxa-8-azabicyclo[3.2.1]octane-8-carbonyl)-4-ethoxy-N-((R)-2-hydroxy-2-((S)-1,2,3,4-tetrahydroisoquinolin-3-yl)ethyl)nicotinamide dihydrochloride]	8.10	6.97		
CCOc1cc(C(=O)N2C3CCC2COC3)c(F)cc1C(=O)NC[C@@H](O)[C@@H]1Cc2ccccc2CN1 [Example 69]		5.89	8.52	
O=C(NC[C@@H](O)[C@@H]1Cc2ccccc2CN1)c1ccc(C(=O)N2CCS(=O)(=O)CC2)cc1 [Example 37, 4-(1,1-Dioxidothiomorpholine-4-carbonyl)-N-((R)-2-hydroxy-2-((S)-1,2,3,4-tetrahydroisoquinolin-3-yl)ethyl)benzamide]		6.98	6.60	
COC(=O)N1CCC(Oc2cc(C(=O)NC[C@@H](O)[C@@H]3Cc4ccccc4CN3)ccn2)CC1 [Example 27, Methyl 4-((4-(((R)-2-hydroxy-2-((S)-1,2,3,4-tetrahydroisoquinolin-3-yl)ethyl)carbamoyl)pyridin-2-yl)oxy)piperidine-1-carboxylate bis(2,2,2-trifluoroacetic acid) salt]		7.36	8.15	
O=C(NC[C@@H](O)[C@@H]1Cc2ccccc2CN1)c1ccc(C(=O)N2C3CCC2COC3)cc1F [Example 81, 4-(3-Oxa-8-azabicyclo[3.2.1]octane-8-carbonyl)-2-fluoro-N-((R)-2-hydroxy-2-((S)-1,2,3,4-tetrahydroisoquinolin-3-yl)ethyl)benzamide hydrochloride]		7.29	8.52	
COc1cc(C(=O)N2C3CCC2COC3)ccc1C(=O)NC[C@@H](O)[C@@H]1Cc2ccccc2CN1 [Example 87, 4-(3-Oxa-8-azabicyclo[3.2.1]octane-8-carbonyl)-N-((R)-2-hydroxy-2-((S)-1,2,3,4-tetrahydroisoquinolin-3-yl)ethyl)-2-methoxybenzamide hydrochloride]		7.24		
O=C(NC[C@@H](O)[C@@H]1Cc2ccccc2CN1)c1ccc(CC(=O)N2CCCCC2)nc1 [Example 72, N-((R)-2-Hydroxy-2-((S)-1,2,3,4-tetrahydroisoquinolin-3-yl)ethyl)-6-(2-oxo-2-(piperidin-1-yl)ethyl)nicotinamide dihydrochloride]		6.23		
COc1cc(C(=O)NC[C@@H](O)[C@@H]2Cc3ccccc3CN2)ccn1 [Example 71, N-((R)-2-Hydroxy-2-((S)-1,2,3,4-tetrahydroisoquinolin-3-yl)ethyl)-2-methoxyisonicotinamide dihydrochloride]		6.03		

More lines, main results first:

pIC50 [1, 3]	pIC50 [2]	pIC50 [1, 4]	Structure (SMILES)	pIC50 ([1]; PerkinElmer Phenix high content imaging, mean intensity per cell, read-out: IC50 - image based)
8.00	6.98		O=C(NC[C@@H](O)[C@@H]1Cc2ccccc2CN1)c1ccc(N2CCOCC2)nc1 [Example 101, N—((R)-2-Hydroxy-2-((S)-1,2,3,4-tetrahydroisoquinolin-3-yl)ethyl)-6-morpholinonicotinamide]	
	4.78	5.63	CCOc1ccccc1C(=O)NC[C@@H](O)[C@@H]1Cc2ccccc2CN1 [Example 8, 2-Ethoxy-N-((R)-2-hydroxy-2-((S)-1,2,3,4-tetrahydroisoquinolin-3-yl)ethyl)benzamide]	
8.52	7.28	7.82	O=C(NC[C@@H](O)[C@@H]1Cc2ccccc2CN1)c1ccnc(OC2CCOCC2)c1 [Example 26, N-((R)-2-Hydroxy-2-((S)-1,2,3,4-tetrahydroisoquinolin-3-yl)ethyl)-2-((tetrahydro-2H-pyran-4-yl)oxy)isonicotinamide bis(2,2,2-trifluoroacetic acid) salt]	
7.92	6.83		O=C(NC[C@@H](O)[C@@H]1Cc2ccccc2CN1)c1ccnc(OC2CCOC2)c1 (stereo partly drawn) [Example 104, N—((R)-2-Hydroxy-2-((S)-1,2,3,4-tetrahydroisoquinolin-3-yl)ethyl)-2-((tetrahydrofuran-3-yl)oxy)isonicotinamide bis(2,2,2-trifluoroacetate)]	
	7.21	7.82	CC(=O)N1CCC(Nc2cc(C(=O)NC[C@@H](O)[C@@H]3Cc4ccccc4CN3)ncn2)CC1 [Example 51, 6-((1-Acetylpiperidin-4-yl)amino)-N—((R)-2-hydroxy-2-((S)-1,2,3,4-tetrahydroisoquinolin-3-yl)ethyl)pyrimidine-4-carboxamide dichloride]	
	7.15	7.06	O=C(NC[C@@H](O)[C@@H]1Cc2ccccc2CN1)c1ccnc(OC2CCNCC2)c1 [Example 21, N-((R)-2-Hydroxy-2-((S)-1,2,3,4-tetrahydroisoquinolin-3-yl)ethyl)-2-(piperidin-4-yloxy)isonicotinamide]	
	5.08	5.84	O=C(NC[C@@H](O)[C@@H]1Cc2ccccc2CN1)c1ccccc1 [Example 3, N-((R)-2-Hydroxy-2-((S)-1,2,3,4-tetrahydroisoquinolin-3-yl)ethyl)benzamide]	
	6.42	7.64	O=C(NC[C@@H](O)[C@@H]1Cc2ccccc2CN1)c1ccc(C(=O)N2CCOCC2)cc1F [Example 15, 2-Fluoro-N-((R)-2-hydroxy-2-((S)-1,2,3,4-tetrahydroisoquinolin-3-yl)ethyl)-4-(morpholine-4-carbonyl)benzamide]	
	6.91	7.09	O=C(NC[C@@H](O)[C@@H]1Cc2ccccc2CN1)c1ccc2nc(C(F)(F)F)[nH]c2c1 [Example 84, N-((R)-2-Hydroxy-2-((S)-1,2,3,4-tetrahydroisoquinolin-3-yl)ethyl)-2-(trifluoromethyl)-1H-benzo[d]imidazole-6-carboxamide dihydrochloride]	
